Consider 16 compounds from ChEMBL document CHEMBL1121629, “1-(Aminoalkyl)-6-aryl-4-H-s-triazolo[4,3-a][1,4]benzodiazepines with antianxiety and antidepressant activity” (1980).

Type in all cases: functional
Assay [1] is filed under the species Mus musculus. The assay is described as follows: Tested for stereotyped gnawing and licking behavior of mice pretreated with apomorphine (AG).
The species named for assay [2] is Mus musculus. Description: Tested for antagonism of nicotine-induced death (D) in mice.
Assay [3] is filed under the species Mus musculus. The assay is described as follows: Tested for antagonism of pentylenetetrazole-induced clonic convulsions (P) in mice.
The species named for assay [4] is Mus musculus. The assay is described as follows: Tested for potentiation of yohimbine toxicity in aggregated mice(Y).
For assay [5], the species on record is Mus musculus. The assay is described as follows: Tested for antagonism of nicotine-induced tonic extensor convulsions (TE) in mice.
The species named for assay [6] is Mus musculus. Description: Tested for potentiation of gamma-butyrolactone induced sleep (gamma-B) in mice.
The species entered for assay [7] is Mus musculus. The assay is described as follows: Tested for antagonism of oxotremorine hypothermia (OX) in mice.
For assay [8], the species on record is Mus musculus. The assay is described as follows: Prolongation of hypoxic survival time (HS) in mice.
The species named for assay [9] is Mus musculus. Description: Tested for antagonism of bicuculline-induced tonic-extensor convulsions (B) in mice.

In general, ED50 refers to the midpoint of the dose-response relation. Take `Clc1ccc2c(c1)C(c1ccccc1)=NCc1nnc(CCCN3CCOCC3)n1-2`: the ED50 in assay [1] was over 50 mg/kg; in assay [2] it was 5.6 mg/kg; in assay [3], 10 mg/kg; in [4], over 50 mg/kg; in [5], 5.6 mg/kg; in assay [6], 10 mg/kg. Also, the results for the ED50 in assay [7], in assay [8] and in assay [9] were over 50 mg/kg, 7 mg/kg and 7.1 mg/kg, respectively.

In the case of `CCN(CC)CCc1nnc2n1-c1ccc(Cl)cc1C(c1ccccc1)=NC2`, the ED50 was over 50 mg/kg in assay [1]; 2 mg/kg in assay [2]; 25 mg/kg in [3]; over 50 mg/kg in assay [4]; 2 mg/kg in assay [5]; 15 mg/kg in assay [6]. The ED50 is 42 mg/kg in [7], 40 mg/kg in [8] and over 50 mg/kg in assay [9].

As to `CC(N)Cc1nnc2n1-c1ccc(Cl)cc1C(c1ccccc1)=NC2` (centres undefined), the ED50 is 25 mg/kg in [1]; 32 mg/kg in [2]; over 50 mg/kg in [3]; 21 mg/kg in assay [4]; 18 mg/kg in [5]; 35 mg/kg in assay [6]. Besides, the values for the ED50 in [7], in [8] and in assay [9] were 4.4 mg/kg, over 50 mg/kg and over 50 mg/kg, respectively.

Consider `CN(C)Cc1nnc2n1-c1ccccc1C(c1ccccc1)=NC2`, for which the ED50 in assay [1] amounted to 3.1 mg/kg; in assay [2], 2.8 mg/kg; in assay [3] it was 6.2 mg/kg; in assay [4], 35.4 mg/kg; in assay [5], 2.5 mg/kg; in assay [6], 6.2 mg/kg. Moreover, the ED50 is 12.5 mg/kg in [7], over 50 mg/kg in assay [8] and 50 mg/kg in assay [9].

As to `NCCc1nnc2n1-c1ccc(Cl)cc1C(c1ccccc1)=NC2`, the ED50 amounted to 35 mg/kg in [1]; 6.3 mg/kg in assay [2]; 10.5 mg/kg in [3]; 50 mg/kg in assay [4]; 7.1 mg/kg in assay [5]; 7.4 mg/kg in assay [6]. Besides, the ED50 in [7] was 4.4 mg/kg; in assay [8], over 50 mg/kg; in [9], 17.7 mg/kg.

Take `CNC(C)c1nnc2n1-c1ccc(Cl)cc1C(c1ccccc1)=NC2` (centres undefined): the ED50 is 50 mg/kg in assay [1]; 1 mg/kg in assay [2]; 4.4 mg/kg in assay [3]; 30 mg/kg in assay [4]; 0.9 mg/kg in [5]; 3.7 mg/kg in assay [6]. Also, the figures for the ED50 in assay [7], in [8] and in [9] were over 50 mg/kg, 0.5 mg/kg and 9 mg/kg, respectively.

Consider `CN(C)CCc1nnc2n1-c1ccc(Cl)cc1C(c1ccccc1Cl)=NC2`, for which the ED50 amounted to 6.3 mg/kg in assay [1]; 0.28 mg/kg in assay [2]; 0.3 mg/kg in assay [3]; 29.7 mg/kg in assay [4]; 0.28 mg/kg in [5]; 0.4 mg/kg in [6]. Also, the figures for the ED50 in assay [7], in [8] and in assay [9] were over 50 mg/kg, 1.3 mg/kg and 0.5 mg/kg, respectively.

For `Clc1ccc2c(c1)C(c1ccccc1)=NCc1nnc(CCCN3CCCC3)n1-2`, the ED50 in assay [1] is 25 mg/kg; in assay [2] it was 16 mg/kg; in assay [3], 4.4 mg/kg; in assay [4], 42 mg/kg; in [5], 14 mg/kg; in [6], 35.4 mg/kg. Also, the ED50 in assay [7], in [8] and in assay [9] was over 50 mg/kg each time.

Turning to `Clc1ccc2c(c1)C(c1ccccc1)=NCc1nnc(CNCC3CC3)n1-2`, the ED50 was over 50 mg/kg in assay [1]; 0.2 mg/kg in assay [2]; 3.1 mg/kg in assay [3]; 50 mg/kg in assay [4]; 0.2 mg/kg in assay [5]; 1.3 mg/kg in assay [6]. Also, the ED50 was over 50 mg/kg in [7], 1 mg/kg in assay [8] and 1.9 mg/kg in assay [9].

Regarding `CNCc1nnc2n1-c1ccc(Cl)cc1C(c1ccccc1)=NC2`, the ED50 in [1] was 12.5 mg/kg; in assay [2] it was 0.18 mg/kg; in [3] it was 0.4 mg/kg; in [4], over 50 mg/kg; in [5] it was 0.16 mg/kg; in [6], 0.1 mg/kg. In addition, the ED50 is 3.7 mg/kg in assay [7], 40 mg/kg in assay [8] and 0.5 mg/kg in assay [9].

For `Clc1ccc2c(c1)C(c1ccccc1)=NCc1nnc(CN3CCN(c4ccccc4)CC3)n1-2`, the ED50 in [1] is over 30 mg/kg; in assay [2] it was 159 mg/kg; in [3] it was over 30 mg/kg; in assay [4], over 30 mg/kg; in assay [5], 159 mg/kg; in assay [6], over 30 mg/kg. In addition, the ED50 was over 30 mg/kg in assay [7], over 50 mg/kg in [8] and over 30 mg/kg in assay [9].

For `NCCc1nnc2n1-c1ccc(Cl)cc1C(c1ccccc1Cl)=NC2`, the ED50 was 14.9 mg/kg in [1]; 4.5 mg/kg in assay [2]; 21 mg/kg in assay [3]; over 50 mg/kg in assay [4]; 4.5 mg/kg in assay [5]; 21 mg/kg in assay [6]. Further, the ED50 in assay [7] was 29.7 mg/kg; in [8], over 50 mg/kg; in assay [9], 25 mg/kg.

For `C=CCN(C)Cc1nnc2n1-c1ccc(Cl)cc1C(c1ccccc1)=NC2`, the ED50 in assay [1] is over 50 mg/kg; in assay [2], 1.1 mg/kg; in assay [3], 4.4 mg/kg; in [4] it was over 50 mg/kg; in [5], 1.1 mg/kg; in assay [6], 1.6 mg/kg. The ED50 is over 50 mg/kg in assay [7], over 50 mg/kg in [8] and 3.7 mg/kg in assay [9].

As to `CC(N)c1nnc2n1-c1ccc(Cl)cc1C(c1ccccc1)=NC2` (centres undefined), the ED50 in [1] is over 50 mg/kg; in assay [2], 0.35 mg/kg; in assay [3], 0.6 mg/kg; in [4], over 50 mg/kg; in [5], 0.3 mg/kg; in [6], 0.12 mg/kg. Also, the ED50 in assay [7] was over 50 mg/kg; in [8], 3 mg/kg; in assay [9], 0.6 mg/kg.

For `CN1CCN(Cc2nnc3n2-c2ccc(Cl)cc2C(c2ccccc2)=NC3)CC1`, the ED50 in assay [1] was over 100 mg/kg; in [2], 5 mg/kg; in assay [3], 100 mg/kg; in assay [4], over 100 mg/kg; in assay [5] it was 4.5 mg/kg; in [6], 20 mg/kg. The ED50 in assay [7] was over 100 mg/kg; in [8] it was 50 mg/kg; in [9], 100 mg/kg.

With `NCc1nnc2n1-c1ccc(Cl)cc1C(c1ccccc1)=NC2`, the ED50 in assay [1] came out at 2.6 mg/kg; in assay [2], 0.28 mg/kg; in [3], 0.35 mg/kg; in [4] it was 35.4 mg/kg; in [5], 0.22 mg/kg; in assay [6], 0.8 mg/kg. Besides, the ED50 in assay [7] was 29.7 mg/kg; in assay [8], 0.8 mg/kg; in [9], 14.9 mg/kg.
